Measurements as given in ChEMBL document CHEMBL1146723, “Synthesis of benzophenone oxime analogues as inhibitor of secretory phospholipase A(2) with anti-inflammatory activity” (2004).
Several values for one entry are separate records, joined by “and”; a condition that tells them apart may be missing. Equal entries are not always repeated. Activity calls are given as the source filed them. No cut-off for these calls is given here.

Legend:
Mus musculus = test: Antiinflammatory activity was evaluated for the increase in weight due to edema was calculated as edema ratio; format: functional
[1] = molecular target: Phospholipase A2, major isoenzyme (Sus scrofa) (UniProt P00592); test: (§1) Percentage inhibitory activity against Phospholipase A2 isolated from venom of Trimeresurus malabaricus; conditions: concentration not given here
[2] = molecular target: Phospholipase A2, major isoenzyme (Sus scrofa) (UniProt P00592); test: (§2) Percentage inhibitory activity against Phospholipase A2 isolated from venom of Vipera russelli; conditions: Daboia russellii; concentration not given here
[3] = molecular target: Phospholipase A2, major isoenzyme (Sus scrofa) (UniProt P00592); test: (§3) Percentage inhibitory activity against Phospholipase A2 isolated from venom of Naja naja; conditions: concentration not given here
Trimeresurus malabaricus [4] = test: Percentage inhibitory activity against Phospholipase A2 isolated from venom of Trimeresurus malabaricus; NI = No inhibition
Daboia russellii = test: as §2; conditions: concentration not given here
Naja naja = test: as §3; conditions: concentration not given here
Trimeresurus malabaricus [5] = test: as §1; conditions: concentration not given here

Phospholipase A2, major isoenzyme (Sus scrofa), sequence (P00592 23-146 limits assumed): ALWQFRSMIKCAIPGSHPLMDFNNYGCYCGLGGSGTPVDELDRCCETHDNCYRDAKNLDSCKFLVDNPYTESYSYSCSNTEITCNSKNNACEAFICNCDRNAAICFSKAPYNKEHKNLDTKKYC

Structure (SMILES): COc1ccc(/C(=N/O)c2cccc(Cl)c2)cc1OC
- Edema ratio (Mus musculus): 101 and 109 and 105 and 106 and 107
- inhibition [1]: 72.4%
- inhibition [2]: 85.3%
- inhibition [3]: 90.2%

Structure (SMILES): COc1ccc(/C(=N/O)c2ccccc2)cc1
- Edema ratio (Mus musculus): 180 and 142 and 183 and 147 and 151
- inhibition (Trimeresurus malabaricus [4]): inactive
- inhibition (Daboia russellii): 29.9%
- inhibition (Naja naja): 42.4%

Structure (SMILES): COc1cccc(C(=NO)c2cccc(OC)c2)c1
- Edema ratio (Mus musculus): 136 and 142 and 181 and 147 and 149
- inhibition (Trimeresurus malabaricus [4]): inactive
- inhibition (Daboia russellii): 58.7%
- inhibition (Naja naja): 36.9%

Structure (SMILES): Cc1cccc(/C(=N/O)c2ccccc2)c1
- Edema ratio (Mus musculus): 102 and 110 and 101 and 103 and 109
- inhibition (Trimeresurus malabaricus [5]): 81.6%
- inhibition (Daboia russellii): 79.2%
- inhibition (Naja naja): 82.9%
